We go through 2 compounds from patent publication US20230125075A1, “Composition Containing Paper Mulberry Extracts” (LG Household & Health Care Ltd., priority 2020, published 2023).

In one series the test system is HepG2 cells. Nature of the series: in vitro. The following applies: human, 24 h, 100 mM. Here is the method:
(§1) First, HepG2 cells were cultured at 37° C. under 5% CO2 atmosphere in a DMEM culture medium containing 10% FBS. Then, the cultured HepG2 cells were seeded on a 24-well plate at a cell density of 3×10^5 cells/well, followed by incubation for 1 day. Then, various concentrations of test substances were added to HepG2 cells, followed by incubation for 24 hours.
(§2) An MTT solution dissolved in PBS at a concentration of 5 mg/mL was diluted to 10% with the culture medium. The solution was dispensed in a volume of 0.5 to 1.0 mL in a 24-well plate and incubated for 4 hours in an incubator.
(§3) After 4 hours of incubation, the culture medium containing the MTT solution was removed, and 1 mL of DMSO was added and was shaken for 10 minutes. Then, absorbance was measured at 540 nm. At this time, as positive controls, the cells were treated with (1) 100 mM ethanol and (2) 100 mM ethanol+100 ppm Silymarin, respectively.
(§4) As a result of the experiment, liver cell viability was quantified. That is, as liver cell viability increases, the liver health improvement effect increases.
(§5) As the absorbance value increases, liver cell viability increases.

The next series is described as follows: in vitro. The following applies: human. Here is the method:
as §1, §2, §3, §4, §5

For series [1], the system named is THP-1 cells and NK-92 cells. The experiment in a line: Interferon gamma (IFN-γ) production, ELISA. The series is classed as cell-based. To be noted: positive control. Here is the method: To confirm the immune function improvement effect of the plant extracts, the amount of interferon gamma produced in […] and macrophages was measured. First, THP-1 cells, which are macrophages, and NK-92 cells, which are natural killer cells, were suspended in an RPMI (Roswell Park Memorial Institute)-1640 culture medium (for THP-1 cells) and a MEMA (Minimum Essential Media Alpha) culture medium (for NK-92 cells), respectively. The suspended cells were seeded on culture plates (24 wells/96 wells). The plant extracts (sample) diluted to various concentrations were added to the cells. At this time, lipopolysaccharide (LPS) (0.1 to 1 μg/mL) was used as a positive control. The sample-treated cells were placed in a 5% CO2 incubator set to 37° C. and incubated for 24 to 48 hours. Then, the supernatant was taken and used as an analysis sample.
The experiment was performed using an enzyme-linked immunosorbent assay (ELISA) method. After coating a 96-well plate with an IFN-γ primary antibody, 1% bovine serum albumin (BSA) was added to block the remaining space. Then, distilled water (blank), an IFN-γ standard solution, and each sample were added to the wells in an amount of 100 μl and incubated at room temperature for 2 hours. 100 μl of a biotin-bound IFN-γ secondary antibody was added to the wells and incubated at room temperature for 2 hours. 100 μl of avidin-bound horseradish peroxidase (HRP) was added and incubated at room temperature or 37° C. for 30 minutes. 100 μl of a TMB substrate solution was added and incubated at room temperature for 4 to 14 minutes. 50 μl of a stop solution (sulfuric acid) was added to stop the reaction. Absorbance at 450 nm wavelength was measured using an ELISA reader. The IFN-γ content of each sample was calculated based on the absorbance of the standard solution.
In this experiment, the effect of the plant extracts on production of interferon gamma was confirmed. As a result of the experiment, the amount of interferon gamma was quantified. As the level of interferon gamma increases, the degree of improvement in immune function increases.
The absorbance is proportional to the IFN-γ content. In addition, increase in IFN-γ production means that immunity is enhanced, such as promotion of differentiation of T lymphocytes, activation of macrophages, and promotion of production of IgG antibodies in B cells.
Background: ELISA stands for enzyme-linked immunosorbent assay.

Several values for one entry are separate records, joined by “and”; a condition that tells them apart may be missing. Equal entries are not always repeated.

Usually viability stands for a read-out of living cells in per cent, often relative to untreated cells. A high value points to less harm to the cells. As to `CCO` [Ethanol], the “Liver health-Cell viability (% of control)” value in the series with HepG2 cells is reported as 68.25 (Ethanol % of control. Also, the viability at 24 h, 100 mM in “in vitro” is 68.2%.

For lipopolysaccharide [LPS], in series [1] (1 ppm), the Immunity-IFNg secretion is 964.24 % of control; the “Immunity-IFNg secretion (% of control)” value was 964.24 % of control and 964.24 (LPS % of control. Also, in series [1] (LPS 1 ppm), the Immunity-IFNg secretion is recorded as 964.24 % of control and the “Immunity-IFNg secretion (% of control)” value was 964.24 % of control.
